Data from patent US11839216B1, “Quinoline-2,3-fused nine-membered ring scaffold compound, and preparation method and application thereof as effective component in plant fungicide” (QINGDAO AGRICULTURAL UNIVERSITY, priority 2022, dated 2023).

Key:
Assay in all cases: antibacterial activity by mycelial growth rate method
Type in all cases: cell-based
[1] = test system: G. graminis; settings: Gaeumannomyces graminis; for inhibition at 25 µg/mL: 25 mg/L; for inhibition at 50 µg/mL: 50 mg/L; for inhibition at 100 µg/mL: 100 mg/L
Procedure: (§1) Five common strains of C. gloeosporioides, V. mali, F. oxysporum, B. cinerea and G. graminis were selected, and the antibacterial activity of the compounds was tested by a mycelial growth rate method (Ann. Appl. Biol., 2008, 152, 369). The above strains for test were provided by Shangdong Biopesticide Engineering Research Center. Firstly, a certain amount of potato dextrose agar (PDA) was weighed and placed in a wide neck flask, distilled water was added to the wide-necked flask, to prepare a culture medium, and the culture medium was placed in an autoclave for sterilization at 120° C. for half an hour. 1 mg of drugs to be tested were weighed and dissolved in 10 mL of acetone to prepare 100 mg/L of agents, a half of agents therein were taken and diluted with the acetone to 10 mL to prepare 50 mg/L of agents, and 25 mg/L, 12.5 mg/L and 6.25 mg/L of agents might be prepared in such way. 5 mL of agents therein were taken and poured into 50 mL of potato dextrose agar for uniform mixing, and then the mixtures were poured into 5 culture media sterilized at high temperature respectively. The five pathogens were inoculated with inoculation loops respectively after cooling, sealed with sealing films and transferred to a proper temperature for observation. When colonies in the control group without the agents reached […], the colonies in the experimental groups were measured by a cross intersection method according to the following formula: Inhibition rate=(colony diameter of the control group−colony diameter of the experimental groups)/colony diameter of the control group×[…]

[2] = test system: F. oxysporum; settings: Fusarium oxysporum; for inhibition at 25 µg/mL: 25 mg/L; for inhibition at 50 µg/mL: 50 mg/L; for inhibition at 100 µg/mL: 100 mg/L
Procedure: as §1

[3] = test system: V. mali; settings: Cytospora mali; for inhibition at 25 µg/mL: 25 mg/L; for inhibition at 50 µg/mL: 50 mg/L; for inhibition at 100 µg/mL: 100 mg/L
Procedure: as §1

[4] = test system: C. gloeosporioides; settings: Colletotrichum gloeosporioides; for inhibition at 25 µg/mL: 25 mg/L; for inhibition at 50 µg/mL: 50 mg/L; for inhibition at 100 µg/mL: 100 mg/L
Procedure: as §1

[5] = test system: B. cinerea; settings: Botrytis cinerea; for inhibition at 25 µg/mL: 25 mg/L; for inhibition at 50 µg/mL: 50 mg/L; for inhibition at 100 µg/mL: 100 mg/L
Procedure: as §1

| Structure (SMILES) | inhibition at 25 µg/mL [1] | inhibition at 50 µg/mL [1] | inhibition at 100 µg/mL [1] | inhibition at 25 µg/mL [2] | inhibition at 50 µg/mL [2] | inhibition at 100 µg/mL [2] | inhibition at 25 µg/mL [3] | inhibition at 50 µg/mL [3] | inhibition at 100 µg/mL [3] | inhibition at 25 µg/mL [4] | inhibition at 50 µg/mL [4] | inhibition at 100 µg/mL [4] | inhibition at 25 µg/mL [5] | inhibition at 50 µg/mL [5] | inhibition at 100 µg/mL [5] |
| --- | --- | --- | --- | --- | --- | --- | --- | --- | --- | --- | --- | --- | --- | --- | --- |
| c1ccc(CN2Cc3cc4ccccc4nc3CC3CCCN3c3ccccc32)cc1 (stereo not drawn) [Compound 1] | 36.9% | 54.1% | 68.9% | 49.3% | 100% | 100% | ≤ 100% | 100% | 100% | 100% | 100% | 100% | ≤ 100% | 100% | 100% |
| Fc1ccc(CN2Cc3cc4ccccc4nc3CC3CCCN3c3ccccc32)cc1 (stereo not drawn) [Compound 2] | 100% | 100% | 100% | 100% | 100% | 100% | ≤ 100% | 100% | 100% | 92.4% | 100% | 100% | ≤ 100% | 100% | 100% |
| Cc1ccc(CN2Cc3cc4ccccc4nc3CC3CCCN3c3ccccc32)cc1 (stereo not drawn) [Compound 3] | 58.2% | 62.1% | 100% | 100% | 100% | 100% | ≤ 100% | 100% | 100% | 100% | 100% | 100% | ≤ 100% | 100% | 100% |
| COc1cccc(CN2Cc3cc4ccccc4nc3CC3CCCN3c3ccccc32)c1 (stereo not drawn) [Compound 4] | 61.2% | 66.5% | 100% | 100% | 100% | 100% | ≤ 100% | 100% | 100% | 100% | 100% | 100% | ≤ 100% | 100% | 100% |
| Cc1ccc(CN2Cc3cc4ccccc4nc3CC3CCCN3c3cc(Cl)ccc32)cc1 (stereo not drawn) [Compound 5] | 35.9% | 51.9% | 75.1% | 100% | 100% | 100% | ≤ 100% | 100% | 100% | 88.1% | 100% | 100% | ≤ 100% | 100% | 100% |
| Cc1ccc(CN2Cc3cc4cc(C(F)(F)F)ccc4nc3CC3CCCN3c3ccccc32)cc1 (stereo not drawn) [Compound 6] | 56.3% | 100% | 100% | 86.5% | 100% | 100% | ≤ 100% | 100% | 100% | 74.6% | 82.1% | 100% | ≤ 100% | 100% | 100% |
